Activity calls are given as the source filed them.
Assays:
[1] = cytotoxicity in HEK-293T cells, dose response, cytotoxicity control for TCR NF-kB inhibitor project, luminescence, T-cell screen hits (AID 489026); format: functional, cell-based;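 further: cells exposed to compound about 14 hours before the viability readout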
[2] = Luminescence Cell-Based Dose Response HTS to Identify Activators of Luciferase Translation or Activity in H4 […] Cells. [Related pubchem assays: 1829 (Project Summary), 1814 (Primary HTS)]; format: functional
[3] = Luminescent dose response cell-based high throughput screening assay for inhibitors of the Janus kinase 2 mutant JAK2V617F. [Related pubchem assays: 1446 (Primary screen.), 1521 (Confirmation assay.), 1486 (Counter screen.)]; format: functional
[4] = system: H4; assay: Luminescence Cell-Based Dose Response HTS to Identify Activators of 5'UTR Stem-Loop Driven Prion Protein mRNA Translation in H4 Neuroglioblastoma Cells. [Related pubchem assays: 1829 (Project Summary), 1814 (Primary HTS)]; format: functional; details: Homo sapiens
[5] = Luminescence Cell-Based Dose Confirmation HTS to Identify Activators of 5'UTR Stem-Loop Driven Alpha-Synuclein mRNA Translation in H4 Neuroglioblastoma Cells. [Related pubchem assays: 1829 (Project Summary), 1814 (Primary HTS)]; format: functional
[6] = target: Ion channel NompC (Danio rerio, UniProt Q7T1G6); assay: Fluorescence counterscreen assay for TRPML3 agonists: dose response cell-based high-throughput screening assay to identify agonists of the transient receptor potential channel N1 (TRPN1). [Related pubchem assays: 1526, 1424, 1448 ]; format: functional
[7] = Fluorescence-based cell-based high throughput dose response assay for inhibitors of the interaction of nucleotide-binding oligomerization domain containing 2 (NOD2) and the receptor-interacting serine-threonine kinase 2 (RIPK2).; format: functional; details: Homo sapiens
[8] = target: T1, Mucolipin-3 (Homo sapiens, UniProt Q8TDD5); assay: Dose response cell-based high-throughput screening assay for agonists of the transient receptor potential channel ML3 (TRPML3). [Related pubchem assays: 1526, 1424, 1448 ]; format: functional
T1 sequence (Q8TDD5 whole entry): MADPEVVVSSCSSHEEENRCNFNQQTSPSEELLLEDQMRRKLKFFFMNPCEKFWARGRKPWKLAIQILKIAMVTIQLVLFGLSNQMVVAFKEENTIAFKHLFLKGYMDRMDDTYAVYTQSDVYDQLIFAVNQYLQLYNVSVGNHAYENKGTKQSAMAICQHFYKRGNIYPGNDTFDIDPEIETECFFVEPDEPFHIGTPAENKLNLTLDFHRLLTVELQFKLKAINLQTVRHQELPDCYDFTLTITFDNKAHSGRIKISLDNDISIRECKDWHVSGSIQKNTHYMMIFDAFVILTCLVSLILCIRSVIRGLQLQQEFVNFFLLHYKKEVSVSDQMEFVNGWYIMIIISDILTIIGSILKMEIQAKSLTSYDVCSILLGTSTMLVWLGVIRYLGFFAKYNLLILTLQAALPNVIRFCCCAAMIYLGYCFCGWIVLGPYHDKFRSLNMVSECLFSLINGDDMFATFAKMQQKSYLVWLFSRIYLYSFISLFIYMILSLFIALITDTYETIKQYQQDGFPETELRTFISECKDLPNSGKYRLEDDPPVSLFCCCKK

[9] = Luminescence Cell-Based Dose Retest to Confirm Inhibitors of Cancer Stem Cells. [Related pubchem assays (depositor defined):AID2717, AID2721]; format: functional; details: Homo sapiens
[10] = target: T2, Aryl hydrocarbon receptor (Homo sapiens, UniProt P35869); assay: Luminescence-based cell-based high throughput dose response assay for activators of the Aryl Hydrocarbon Receptor (AHR). [Related pubchem assays: 2796 (Primary screen (AHR activators in singlicate)), 2845 (Confirmation screen (AHR activators in triplicate)), 434939 (Counterscreen (PXR activators in triplicate)), 2804 (Summary (AHR activators))]; format: ADME
T2 sequence (P35869 whole entry): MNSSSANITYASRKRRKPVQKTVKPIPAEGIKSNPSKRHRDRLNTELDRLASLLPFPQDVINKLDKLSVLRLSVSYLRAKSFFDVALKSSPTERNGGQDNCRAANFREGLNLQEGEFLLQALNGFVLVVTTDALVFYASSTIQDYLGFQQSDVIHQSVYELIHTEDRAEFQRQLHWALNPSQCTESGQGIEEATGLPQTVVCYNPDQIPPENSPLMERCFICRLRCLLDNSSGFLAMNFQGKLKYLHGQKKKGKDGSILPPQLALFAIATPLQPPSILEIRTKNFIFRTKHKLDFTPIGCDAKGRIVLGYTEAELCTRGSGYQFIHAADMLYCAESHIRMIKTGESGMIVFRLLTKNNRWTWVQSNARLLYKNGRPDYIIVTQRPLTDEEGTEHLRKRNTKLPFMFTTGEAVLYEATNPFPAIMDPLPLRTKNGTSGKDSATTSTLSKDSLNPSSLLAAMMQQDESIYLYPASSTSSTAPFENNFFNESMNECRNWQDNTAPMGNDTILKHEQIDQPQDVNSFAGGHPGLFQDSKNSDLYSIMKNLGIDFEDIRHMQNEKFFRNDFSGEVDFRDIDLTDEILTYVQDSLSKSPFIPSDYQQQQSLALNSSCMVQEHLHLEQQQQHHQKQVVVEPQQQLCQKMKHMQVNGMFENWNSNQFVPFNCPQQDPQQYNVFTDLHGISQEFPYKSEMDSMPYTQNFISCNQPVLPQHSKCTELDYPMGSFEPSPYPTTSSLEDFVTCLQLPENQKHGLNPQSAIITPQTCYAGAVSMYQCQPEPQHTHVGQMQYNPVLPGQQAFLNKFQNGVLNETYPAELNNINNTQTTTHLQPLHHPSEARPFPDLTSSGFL

[11] = Luminescence Cell-Based Dose Confirmation HTS to Identify Inhibitors of Polyadenylation.; format: functional
[12] = system: INS1; assay: beta cell apoptosis inhibitors, cytokine rescue, dose response, luminescence, retest (AID 449756); format: functional, cell-based; details: Rattus norvegicus;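 further: cell death triggered by IL-1 beta plus TNF-alpha plus IFN-gamma mixture; protective hits raise ATP signal compared with cytokine alone wells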
[13] = control 3'UTR Renilla luciferase suppression, dose response, counter-screen for Shn3 inhibitor project, cell-based, Clone20-Shn3RL, cherry-picked (AID 624133); format: functional
[14] = Shn3 3'UTR reporter inhibitors, dose response, cell-based, Clone20 osteoblasts, firefly luciferase, cherry-picked (AID 624132); format: functional;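 further: firefly luciferase luminescence from reporter carrying the Shn3 3'UTR in osteoblasts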
[15] = Luminescence-based dose response cell-based high throughput screening assay for cytotoxic compounds using the IEC-6 intestinal epithelial cell line. [Related pubchem assays: 1858 (Summary AID.), 1825 (Counterscreen.), 1907 (Confirmation screen.)]; format: functional
[16] = target: Beta-galactosidase (Escherichia coli, UniProt Q8VNN2); assay: PubChem AID 485352; format: functional
[17] = microbe, parasite or virus in culture; format: functional; details: Mycobacterium tuberculosis
[18] = LGR2 antagonists, dose response, cell-based, HEK293, CRE-luciferase reporter, cherry pick, set 2 (AID 743343); format: functional;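 further: transfected cells were stimulated with diluted bursicon conditioned medium after compound addition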
[19] = HEK293 cell cytotoxicity, dose response, cytotoxicity control, plate reader, cherry-picked samples (AID 743446); format: functional, cell-based
[20] = inhibitors of intracellular T. cruzi replication, confirmation, NIH3T3 host cells, beta-gal luminescence (AID 2044); format: functional, cell-based;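 further: intracellular parasites grown in NIH/3T3 mouse fibroblasts as host cells; luminescent beta-galactosidase reporter signal from transgenic T. cruzi replicating inside host cells; inhibitors lower the luminescence signal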
[21] = target: T3, Type-1 angiotensin II receptor (Homo sapiens, UniProt P30556); assay: AT1 receptor antagonists, dose response, selectivity assay for APJ receptor antagonist project, cell-based, uHTS hits (AID 463214); format: functional;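 further: antagonist potency against angiotensin II stimulated AT1 response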
T3 sequence (P30556 whole entry): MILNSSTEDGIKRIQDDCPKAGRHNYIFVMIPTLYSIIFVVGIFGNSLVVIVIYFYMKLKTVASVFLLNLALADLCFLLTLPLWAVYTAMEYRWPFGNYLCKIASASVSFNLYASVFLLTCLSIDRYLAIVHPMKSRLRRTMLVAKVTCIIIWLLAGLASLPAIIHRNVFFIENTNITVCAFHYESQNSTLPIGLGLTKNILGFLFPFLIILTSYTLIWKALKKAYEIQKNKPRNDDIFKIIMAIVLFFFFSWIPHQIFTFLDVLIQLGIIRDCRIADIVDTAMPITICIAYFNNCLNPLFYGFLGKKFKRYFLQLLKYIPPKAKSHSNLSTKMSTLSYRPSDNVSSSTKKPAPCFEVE

[22] = MC4R antagonists, dose response, counter-screen for LGR2 antagonist project, cell-based, plate reader, cherry pick (AID 743444); format: functional;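 further: transfected HEK 293 cells stimulated with alpha-MSH peptide; potency of inhibitors of the alpha-MSH evoked signal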
[23] = HepG2 cell cytotoxicity, dose response, cytotoxicity control for Shn3 inhibitor project, CellTiter-Glo, cherry-picked (AID 624134); format: functional, cell-based
[24] = cytotoxicity toward NIH3T3 fibroblasts, dose response, counter-screen, cell-based, ATP luminescence, mouse fibroblasts (AID 2010); format: functional;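 further: cells exposed to compound for about 90 hours before reading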
[25] = target: T4, Heat shock factor protein 1 (Mus musculus, UniProt P38532); assay: inhibition of MG132-induced HSE-luciferase signal, confirmation, cell-based, NIH3T3, luminescence, dose retest (AID 2382); format: functional;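 further: NIH3T3 fibroblasts with HSF1-driven luciferase reporter stressed by proteasome inhibitor MG132; luminescence from HSF1-driven luciferase expression after 8 hours of MG132 stress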
T4 sequence (P38532 whole entry): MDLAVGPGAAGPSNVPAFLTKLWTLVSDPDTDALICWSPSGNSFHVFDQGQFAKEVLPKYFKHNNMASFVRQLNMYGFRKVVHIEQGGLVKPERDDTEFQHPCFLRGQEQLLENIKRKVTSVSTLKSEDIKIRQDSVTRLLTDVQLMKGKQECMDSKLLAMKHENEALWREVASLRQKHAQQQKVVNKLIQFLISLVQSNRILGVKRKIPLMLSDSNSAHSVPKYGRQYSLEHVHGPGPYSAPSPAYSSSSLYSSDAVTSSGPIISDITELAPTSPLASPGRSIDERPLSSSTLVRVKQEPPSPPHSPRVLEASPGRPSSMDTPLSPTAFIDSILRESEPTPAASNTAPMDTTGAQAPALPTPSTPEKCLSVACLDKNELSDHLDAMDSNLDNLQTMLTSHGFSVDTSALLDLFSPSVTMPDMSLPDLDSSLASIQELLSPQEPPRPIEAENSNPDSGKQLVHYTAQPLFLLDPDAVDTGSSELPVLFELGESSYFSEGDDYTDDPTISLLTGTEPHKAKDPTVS

[26] = HepG2 cell cytotoxicity, dose response, cytotoxicity control, plate reader, cherry-pick, antagonist series (AID 743416); format: functional, cell-based
[27] = A549 cell cytotoxicity, dose response, cytotoxicity control, plate reader, cherry-pick, antagonist series (AID 743412); format: functional, cell-based
[28] = A Cell Based Secondary Assay To Explore Cytotoxicity of Compounds that Sensitize Mycobacterium Tuberculosis to Beta-Lactam Antibiotics.; format: functional
[29] = target: Peroxisome proliferator-activated receptor gamma/Nuclear receptor coactivator 3 (Homo sapiens, UniProt P37231); format: functional;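 further: agonist potency for raising coactivator recruitment to the receptor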
[30] = target: Peroxisome proliferator-activated receptor gamma/Nuclear receptor coactivator 1 (Homo sapiens, UniProt P37231); format: functional;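 further: agonist potency as compounds enhance coactivator SRC-1 recruitment to PPARgamma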
[31] = target: Peroxisome proliferator-activated receptor gamma/Nuclear receptor coactivator 2 (Homo sapiens, UniProt P37231); format: functional;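 further: agonist potency for raising coactivator recruitment to the receptor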
[32] = system: BJ; assay: cells; format: functional, cell-based; details: Homo sapiens
[33] = Luminescence Cell-Based Dose Response HTS to Identify Inhibitors of 5'UTR Stem-Loop Driven Prion Protein mRNA Translation in H4 Neuroglioblastoma Cells. [Related pubchem assays: 1827 (Project Summary), 1813 (Primary HTS)]; format: functional
[34] = inhibitors of SNCA 5'UTR-driven reporter translation, confirmation, H4 neuroglioma cells, luminescence (AID 1988); format: functional, cell-based
[35] = cytotoxicity toward DRD oncogenic fibroblasts, dose response, cell-based, non-viral oncogenic, luminescence (AID 1934); format: functional; details: Homo sapiens
[36] = system: BJ; assay: cytotoxicity toward BJ-TERT-LT-ST fibroblasts, dose response, cell-based, RAS-independent, luminescence (AID 1935); format: functional; details: Homo sapiens;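 further: BJ fibroblasts immortalized with TERT plus LT and ST oncogenes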
[37] = system: BJ; assay: cytotoxicity toward BJ-TERT fibroblasts, dose response, cell-based, RAS-independent, luminescence (AID 1933); format: functional; details: Homo sapiens
[38] = inhibitors of firefly luciferase expression or activity, dose response, H4 neuroglioma cells, luminescence (AID 1990); format: functional, cell-based

Sequence of Peroxisome proliferator-activated receptor gamma/Nuclear receptor coactivator 2 (P37231 whole entry): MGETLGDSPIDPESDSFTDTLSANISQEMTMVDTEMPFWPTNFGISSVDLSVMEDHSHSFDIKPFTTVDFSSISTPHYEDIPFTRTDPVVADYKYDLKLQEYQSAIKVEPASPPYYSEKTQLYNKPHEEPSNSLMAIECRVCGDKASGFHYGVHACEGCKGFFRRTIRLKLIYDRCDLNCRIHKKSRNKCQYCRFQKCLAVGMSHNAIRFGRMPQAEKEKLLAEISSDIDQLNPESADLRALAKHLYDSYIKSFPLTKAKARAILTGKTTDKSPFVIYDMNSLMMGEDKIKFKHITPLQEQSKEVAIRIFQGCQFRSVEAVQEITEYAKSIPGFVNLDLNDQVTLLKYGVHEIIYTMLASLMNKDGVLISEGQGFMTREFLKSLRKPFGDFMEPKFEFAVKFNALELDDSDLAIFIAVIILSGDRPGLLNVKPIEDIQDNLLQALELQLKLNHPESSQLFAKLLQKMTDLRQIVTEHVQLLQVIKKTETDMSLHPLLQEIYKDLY
Sequence of Peroxisome proliferator-activated receptor gamma/Nuclear receptor coactivator 2 (Q15596 whole entry, further chain): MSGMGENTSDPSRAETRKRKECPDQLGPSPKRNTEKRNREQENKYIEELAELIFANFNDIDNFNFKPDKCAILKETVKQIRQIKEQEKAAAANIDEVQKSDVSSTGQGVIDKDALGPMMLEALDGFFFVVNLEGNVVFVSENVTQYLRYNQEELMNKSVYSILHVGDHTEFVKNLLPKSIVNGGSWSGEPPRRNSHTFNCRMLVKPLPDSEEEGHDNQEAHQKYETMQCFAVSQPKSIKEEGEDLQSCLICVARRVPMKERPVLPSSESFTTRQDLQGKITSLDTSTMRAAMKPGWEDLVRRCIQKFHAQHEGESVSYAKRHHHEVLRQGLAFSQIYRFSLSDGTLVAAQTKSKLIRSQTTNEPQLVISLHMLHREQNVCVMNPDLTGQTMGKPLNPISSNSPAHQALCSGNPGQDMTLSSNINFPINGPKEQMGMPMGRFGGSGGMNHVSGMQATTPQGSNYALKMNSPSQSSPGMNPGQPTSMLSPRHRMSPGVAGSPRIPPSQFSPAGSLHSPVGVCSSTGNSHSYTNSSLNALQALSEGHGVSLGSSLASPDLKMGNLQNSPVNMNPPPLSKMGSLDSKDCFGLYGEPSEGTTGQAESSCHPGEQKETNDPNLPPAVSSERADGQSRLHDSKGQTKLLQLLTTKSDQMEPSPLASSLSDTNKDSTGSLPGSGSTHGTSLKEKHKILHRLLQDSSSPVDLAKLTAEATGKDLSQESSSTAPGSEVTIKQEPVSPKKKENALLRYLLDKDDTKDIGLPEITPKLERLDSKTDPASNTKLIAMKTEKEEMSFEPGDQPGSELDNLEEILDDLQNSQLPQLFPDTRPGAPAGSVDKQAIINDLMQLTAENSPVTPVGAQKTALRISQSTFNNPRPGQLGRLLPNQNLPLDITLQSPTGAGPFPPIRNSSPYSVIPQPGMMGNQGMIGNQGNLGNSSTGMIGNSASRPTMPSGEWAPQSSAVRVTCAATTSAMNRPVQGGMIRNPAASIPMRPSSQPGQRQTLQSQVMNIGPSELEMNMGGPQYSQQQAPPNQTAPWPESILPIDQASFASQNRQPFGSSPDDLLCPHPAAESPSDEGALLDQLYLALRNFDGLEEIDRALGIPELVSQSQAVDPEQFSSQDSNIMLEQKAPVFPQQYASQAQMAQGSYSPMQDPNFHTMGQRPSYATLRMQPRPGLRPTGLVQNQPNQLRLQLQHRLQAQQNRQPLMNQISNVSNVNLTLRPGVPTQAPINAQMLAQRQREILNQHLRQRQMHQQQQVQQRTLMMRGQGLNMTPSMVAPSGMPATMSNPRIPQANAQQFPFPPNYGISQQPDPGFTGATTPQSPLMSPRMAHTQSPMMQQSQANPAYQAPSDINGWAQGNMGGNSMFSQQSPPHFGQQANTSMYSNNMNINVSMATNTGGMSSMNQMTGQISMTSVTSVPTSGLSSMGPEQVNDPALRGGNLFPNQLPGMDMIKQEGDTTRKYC
Sequence of Peroxisome proliferator-activated receptor gamma/Nuclear receptor coactivator 3 (P37231 whole entry): as the sequence (P37231 whole entry) above
Sequence of Peroxisome proliferator-activated receptor gamma/Nuclear receptor coactivator 3 (Q9Y6Q9 whole entry, further chain): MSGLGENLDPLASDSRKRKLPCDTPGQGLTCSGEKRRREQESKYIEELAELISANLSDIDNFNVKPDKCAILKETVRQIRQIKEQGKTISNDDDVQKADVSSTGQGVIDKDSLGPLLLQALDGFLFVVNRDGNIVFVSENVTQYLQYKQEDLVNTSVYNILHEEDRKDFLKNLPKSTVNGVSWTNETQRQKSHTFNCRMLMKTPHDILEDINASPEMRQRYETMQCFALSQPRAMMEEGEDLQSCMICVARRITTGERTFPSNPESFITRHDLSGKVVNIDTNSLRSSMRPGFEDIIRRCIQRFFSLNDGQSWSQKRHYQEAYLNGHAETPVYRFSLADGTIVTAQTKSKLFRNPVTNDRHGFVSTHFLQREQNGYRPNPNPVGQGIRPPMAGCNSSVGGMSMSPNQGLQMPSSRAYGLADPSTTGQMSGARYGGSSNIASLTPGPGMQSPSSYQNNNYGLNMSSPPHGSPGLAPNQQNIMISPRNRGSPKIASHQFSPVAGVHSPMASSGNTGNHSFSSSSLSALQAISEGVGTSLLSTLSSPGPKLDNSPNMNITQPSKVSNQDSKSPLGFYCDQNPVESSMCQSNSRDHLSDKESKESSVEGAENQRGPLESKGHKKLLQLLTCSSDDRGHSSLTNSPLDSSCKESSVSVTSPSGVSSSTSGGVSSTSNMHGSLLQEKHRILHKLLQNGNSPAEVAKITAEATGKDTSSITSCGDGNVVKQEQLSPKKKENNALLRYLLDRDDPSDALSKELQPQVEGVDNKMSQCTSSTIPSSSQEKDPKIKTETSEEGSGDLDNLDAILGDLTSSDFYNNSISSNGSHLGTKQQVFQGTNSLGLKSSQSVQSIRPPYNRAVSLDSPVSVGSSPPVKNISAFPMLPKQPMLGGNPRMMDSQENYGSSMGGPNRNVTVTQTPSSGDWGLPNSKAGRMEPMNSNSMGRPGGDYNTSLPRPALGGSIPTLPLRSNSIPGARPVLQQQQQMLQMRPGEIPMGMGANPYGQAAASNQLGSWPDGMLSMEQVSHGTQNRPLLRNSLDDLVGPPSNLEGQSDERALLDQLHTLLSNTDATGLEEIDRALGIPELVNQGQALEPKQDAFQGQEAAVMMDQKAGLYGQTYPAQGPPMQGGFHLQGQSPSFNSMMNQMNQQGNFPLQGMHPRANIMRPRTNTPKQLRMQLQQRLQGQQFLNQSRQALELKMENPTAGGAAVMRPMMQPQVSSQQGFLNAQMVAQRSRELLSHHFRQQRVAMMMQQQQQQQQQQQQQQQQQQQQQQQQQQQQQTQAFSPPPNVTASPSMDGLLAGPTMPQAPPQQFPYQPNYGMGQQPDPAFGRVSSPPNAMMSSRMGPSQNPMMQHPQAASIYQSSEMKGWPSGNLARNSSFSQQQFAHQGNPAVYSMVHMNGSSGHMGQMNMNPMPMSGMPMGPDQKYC
Sequence of Beta-galactosidase (Q8VNN2 whole entry): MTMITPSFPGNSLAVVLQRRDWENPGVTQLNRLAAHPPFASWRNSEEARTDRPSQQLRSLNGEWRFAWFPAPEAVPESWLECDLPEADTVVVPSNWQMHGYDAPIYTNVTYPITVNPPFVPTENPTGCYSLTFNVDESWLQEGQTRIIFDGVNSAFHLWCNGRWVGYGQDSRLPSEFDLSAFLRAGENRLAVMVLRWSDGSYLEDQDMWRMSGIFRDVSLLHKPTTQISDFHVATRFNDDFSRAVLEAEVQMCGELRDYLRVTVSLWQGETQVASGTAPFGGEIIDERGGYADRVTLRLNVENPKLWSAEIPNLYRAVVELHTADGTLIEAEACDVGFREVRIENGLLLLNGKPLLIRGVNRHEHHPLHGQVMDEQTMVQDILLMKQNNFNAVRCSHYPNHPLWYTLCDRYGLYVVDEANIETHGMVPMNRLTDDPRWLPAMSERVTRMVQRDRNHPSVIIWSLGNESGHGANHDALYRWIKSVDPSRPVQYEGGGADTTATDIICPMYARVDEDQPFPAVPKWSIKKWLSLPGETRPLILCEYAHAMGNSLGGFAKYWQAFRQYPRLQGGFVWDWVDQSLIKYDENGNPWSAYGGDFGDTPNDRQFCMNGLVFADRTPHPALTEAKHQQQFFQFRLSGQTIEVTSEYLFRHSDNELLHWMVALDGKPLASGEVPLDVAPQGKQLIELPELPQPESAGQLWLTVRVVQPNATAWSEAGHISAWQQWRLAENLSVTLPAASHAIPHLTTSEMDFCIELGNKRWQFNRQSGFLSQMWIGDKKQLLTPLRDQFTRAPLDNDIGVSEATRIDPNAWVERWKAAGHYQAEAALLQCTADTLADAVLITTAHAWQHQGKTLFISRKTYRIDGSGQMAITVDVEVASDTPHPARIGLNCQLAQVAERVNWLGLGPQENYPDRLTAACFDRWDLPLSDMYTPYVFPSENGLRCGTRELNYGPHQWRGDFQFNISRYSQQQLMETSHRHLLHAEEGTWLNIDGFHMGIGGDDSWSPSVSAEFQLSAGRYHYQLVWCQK

O=C1C=CCC(/C=C/c2ccccc2)O1 (stereo not given)
IC50 [1]: > 80 µM (inactive) | EC50 [2]: > 120 µM (not active) | IC50 [3]: 1.31 µM (active) | EC50 [4]: 98.3 µM (active) | EC50 [5]: > 120 µM (not active)

O=S(=O)(c1cnc(Cl)c(Br)c1)N1CCc2ccccc21
IC50 [3]: 4.22 µM (active) | EC50 [6]: > 29.9 µM (not active) | IC50 [7]: 6.35 µM (active) | EC50 [8]: 7.71 µM (active) | AC50 [9]: 12.1 µM (inconclusive)

Cc1nc(Cl)sc1C(=O)Nc1ccc(C(F)(F)F)cc1
EC50 [10]: 1.57 µM (active)

CC(NC(=O)CCCCCCN1C(=O)c2ccccc2C1=O)c1ccc2c(c1)CCCC2 (stereo not given)
EC50 [11]: > 120 µM (not active)

O=[N+]([O-])c1ccc(S(=O)(=O)c2ccccc2)nc1
AC50 [12]: 6.73 µM (active) | AC50 [13]: 3.96 µM (active) | AC50 [14]: 1.74 µM (active) | IC50 [15]: 3.48 µM (active) | EC50 [16]: > 40 µM (inactive) | CC50 [17]: 8.09 µM (active) | AC50 [18]: 3.97 µM (active) | AC50 [19]: 8.17 µM (active) | EC50 [20]: 1.89 µM (active) | IC50 [21]: 13.1 µM (active) | AC50 [22]: 4.77 µM (active) | AC50 [23]: 16.2 µM (active) | IC50 [7]: 2.65 µM (active) | EC50 [24]: 2.5 µM (active) | EC50 [25]: 5.64 µM (active) | AC50 [26]: 6.81 µM (active) | AC50 [27]: 8.59 µM (active)

Cc1ccc(CN2CCSc3ccc(C(=O)NC4CCN(Cc5ccccc5)CC4)cc32)cc1
EC50 [20]: 1.37 µM (active) | EC50 [24]: > 60 µM (not active) | CC50 [28]: > 40 µM (active)

CCN(CC)C(=O)C1CCCN(c2ccc([N+](=O)[O-])cc2/C=N/NC(=O)c2cccc([N+](=O)[O-])c2)C1 (stereo not given)
CC50 [28]: > 40 µM (active)

O=C(N/N=C/c1ccsc1)c1cc2ccccc2o1
EC50 [11]: > 120 µM (not active)

CCOc1ccc(/C=N/n2cc(-c3ccccc3)nc2S)cc1
EC50 [29]: > 79.4 µM (not active) | EC50 [30]: > 79.4 µM (not active) | EC50 [20]: 2.35 µM (active) | EC50 [10]: 4.76 µM (active) | EC50 [24]: > 60 µM (not active) | EC50 [31]: > 79.4 µM (not active)

Cc1ccc(-n2ncc(C(=O)Nc3cc(Cl)cc(Cl)c3)c2C2CCNCC2)cc1C
EC50 [32]: 8.6 µM (inconclusive) | IC50 [15]: 5.23 µM (active) | EC50 [20]: 2.02 µM (active) | EC50 [33]: 9.16 µM (active) | EC50 [34]: 7.75 µM (active) | EC50 [35]: 5.28 µM (active) | EC50 [24]: > 30 µM (not active) | EC50 [36]: 6.96 µM (inconclusive) | EC50 [37]: 3.72 µM (active) | EC50 [38]: > 120 µM (not active)
